Laboratory results as given in patent US4987258A, “4,4'-diaminodiphenyl compounds, process for their preparation and their use” (Hoechst Aktiengesellschaft, priority 1987, dated 1991).

The molecules below were run on Salmonella typhimurium (strains TA 98, TA 100, TA 1535, TA 1537, TA 1538) (assay: Ames mutagenicity test with Salmonella typhimurium in the absence and presence of S-9-mix). Settings: not given.
Format: cell-based
Procedure: The examples below will describe the invention in more detail. The mutagenicity test was carried out, following Ames, with Salmonella typhimurium (strains TA 98, TA 100, TA 1535, TA 1537, TA 1538) in the absence and presence of S-9-mix (B. N. Ames et al., Mut. Res. Vol. 31, p. 347-364 (1975)).

Row | Structure (SMILES) | Ames test
1 | CCC(C)c1cc(-c2ccc(N)c(C(C)CC)c2)ccc1N (stereo not shown) | negative
2 | CCCc1cc(-c2ccc(N)c(CCC)c2)ccc1N [Example 4] | negative
3 | CCCCc1cc(-c2ccc(N)c(CCCC)c2)ccc1N [Example 5] | negative
4 | CC(C)Cc1cc(-c2ccc(N)c(CC(C)C)c2)ccc1N [Example 6] | negative
5 | CCCOc1cc(-c2ccc(N)c(OCCC)c2)ccc1N [Example 8] | negative
6 | CC(C)Oc1cc(-c2ccc(N)c(OC(C)C)c2)ccc1N [Example 9] | negative
7 | CCC(C)Oc1cc(-c2ccc(N)c(OC(C)CC)c2)ccc1N (stereo not shown) [Example 10] | negative

Same assay, conditions: Examples 1-3

Row | Structure (SMILES) | Ames mutagenicity test
8 | CC(C)c1cc(-c2ccc(N)c(C(C)C)c2)ccc1N [Example 1, 3,3-diisopropylbenzidine dichlorohydrate] | negative
9 | CC(C)COc1cc(-c2ccc(N)c(OCC(C)C)c2)ccc1N [Example 2, 3,3'-diisobutoxybenzidine] | negative
10 | COCCOc1cc(-c2ccc(N)c(OCCOC)c2)ccc1N [Example 3, 3,3'-di(2-methoxyethoxy)-benzidine] | negative
